Assay results published in patent US20230234942A1, “COMPOUNDS FOR TREATING HUNTINGTON'S DISEASE” (PTC Therapeutics, Inc., priority 2020, published 2023).

System: Endogenous Huntingtin Protein
Assay: Endogenous Huntingtin Protein Assay (ELISA-based MSD electrochemiluminescence)
Type: cell-based
Method: Compounds of Formula (I) were tested using the Meso Scale Discovery (MSD) Assay provided in International Application No. PCT/US2016/066042, filed on Dec. 11, 2016 and claiming priority to U.S. Provisional Application 62/265,652 filed on Dec. 10, 2015, the entire contents of which are incorporated herein by reference.
The Endogenous Huntingtin Protein assay used in Biological Example 1 was developed using the ELISA-based MSD electrochemiluminescence assay platform.
Meso Scale Discovery (MSD) 96-well or 384-well plates were coated overnight at 4° C. with MW1 (expanded polyglutamine) or MAB2166 monoclonal antibody (for capture) at a concentration of 1 μg/mL in PBS (30 μL per well). Plates were then washed three times with 300 μL wash buffer (0.05% Tween-20 in PBS) and blocked (100 μL blocking buffer; 5% BSA in PBS) for 4-5 hours at room temperature with rotational shaking and then washed three times with wash buffer.
Samples (25 μL) were transferred to the antibody-coated MSD plate and incubated overnight at 4° C. After removal of the lysates, the plate was washed three times with wash buffer, and 25 μL of #56565 (Cell signaling; rabbit monoclonal) secondary antibody (diluted to 0.25 μg/mL in 0.05% Tween-20 in blocking buffer) was added to each well and incubated with shaking for 1 Hour at room temperature. Following incubation with the secondary antibody, the wells were rinsed with wash buffer after which 25 μL of goat anti-rabbit SULFO TAG secondary detection antibody (required aspect of the MSD system) (diluted to 0.25 μg/mL in 0.05% Tween-20 in blocking buffer) was added to each well and incubated with shaking for 1 hour at room temperature. After rinsing three times with wash buffer, 150 μL of read buffer T with surfactant (MSD) were added to each empty well, and the plate was imaged on a SI 6000 imager (MSD) according to manufacturers' instructions provided for 96- or 384-well plates.

[1] = Table 2, MSD plates coated with MW1 (expanded polyglutamine) or MAB2166 capture antibody, "inactive" = result above the detection limit of the assay

SMILES | IC50 [1] | IC50 (Table 3, selected compounds from WO/2019/191229 A1, same MSD assay)
CC[C@H]1CN(c2ncc(-c3ccc(-c4ncns4)cc3O)nn2)C[C@@H](C)N1 (single isomer, unassigned) [Cpd 267, 2-{3-[(3S,5R)-3-ethyl-5-methylpiperazin-1-yl]-1,2,4-triazin-6-yl}-5-(1,2,4-thiadiazol-5-yl)phenol or 2-{3-[(3R,5S)-3-ethyl-5-methylpiperazin-1-yl]-1,2,4-triazin-6-yl}-5-(1,2,4-thiadiazol-5-yl)phenol] | 145 nM | –
CC1CN(c2ncc(-c3ccc(-c4cn[nH]c4)cc3O)nn2)CCN1 (centres unmarked) [Cpd 42, 2-[3-(3-methylpiperazin-1-yl)-1,2,4-triazin-6-yl]-5-(1H-pyrazol-4-yl)phenol] | 111 nM | –
Oc1cc(-c2cn[nH]c2)ccc1-c1cnc(N2CCNC(C3CCC3)C2)nn1 (centres unmarked) [Cpd 30, 2-[3-(3-cyclobutylpiperazin-1-yl)-1,2,4-triazin-6-yl]-5-(1H-pyrazol-4-yl)phenol] | 33.3 nM | –
C[C@@H]1CN(c2ncc(-c3ccc(-c4cn[nH]c4)cc3O)nn2)C[C@H](C2CCC2)N1 [Cpd 231, 2-{3-[(3S,5R)-3-cyclobutyl-5-methylpiperazin-1-yl]-1,2,4-triazin-6-yl}-5-(1H-pyrazol-4-yl)phenol] | 21.9 nM | –
C[C@@H]1CN(c2ncc(-c3ccc(-c4cn[nH]c4)cc3O)nn2)C[C@H](C(C)(C)C)N1 [Cpd 247, 2-{3-[(3S,5R)-3-tert-butyl-5-methylpiperazin-1-yl]-1,2,4-triazin-6-yl]-5-(1H-pyrazol-4-yl)phenol] | 201 nM | –
Oc1cc(-c2cn[nH]c2)ccc1-c1cnc(N2CCNC3(CC3)C2)nn1 [Cpd 55, 2-[3-(4,7-diazaspiro[2.5]octan-7-yl)-1,2,4-triazin-6-yl]-5-(1H-pyrazol-4-yl)phenol] | 548 nM | –
CC(C)(C)[C@H]1CN(c2ncc(-c3ccc(-c4ncsn4)cc3O)nn2)CCN1 [Cpd 258, 2-{3-[(3S)-3-tert-butylpiperazin-1-yl]-1,2,4-triazin-6-yl}-5-(1,2,4-thiadiazol-3-yl)phenol] | 10.8 nM | –
CCC1CN(c2ncc(-c3ccc(-c4cc(F)c5nn(C)cc5c4)cc3O)nn2)CCN1 (centres unmarked) [Cpd 74, 2-[3-(3-ethylpiperazin-1-yl)-1,2,4-triazin-6-yl]-5-(7-fluoro-2-methyl-2H-indazol-5-yl)phenol] | 4.3 nM | –
CC(C)[C@H]1CN(c2ncc(-c3ccc(-c4cnnn4C)cc3O)nn2)CCN1 [Cpd 261, 5-(1-methyl-1H-1,2,3-triazol-5-yl)-2-{3-[(3S)-3-(propan-2-yl)piperazin-1-yl]-1,2,4-triazin-6-yl}phenol] | 993 nM | –
Oc1cc(-c2ncsn2)ccc1-c1cnc(N2CCN[C@@H](C3CC3)C2)nn1 [Cpd 213, 2-{3-[(3S)-3-cyclopropylpiperazin-1-yl]-1,2,4-triazin-6-yl]-5-(1,2,4-thiadiazol-3-yl)phenol] | 7.7 nM | –
CC[C@H]1CN(c2ncc(-c3ccc(-c4cn[nH]c4)cc3O)nn2)C[C@@H](C)N1 (racemic) [Cpd 148, 2-{3-[rac-(3S,5R)-3-ethyl-5-methylpiperazin-1-yl]-1,2,4-triazin-6-yl}-5-(1H-pyrazol-4-yl)phenol] | 53.4 nM | –
CC(C)[C@H]1CN(c2ncc(-c3ccc(-c4ncsn4)cc3O)nn2)CCN1 [Cpd 239, 2-{3-[(3S)-3-(propan-2-yl)piperazin-1-yl]-1,2,4-triazin-6-yl}-5-(1,2,4-thiadiazol-3-yl)phenol] | 12.4 nM | –
Cc1nc2cnc(-c3ccc(-c4cnc(N5C[C@@H](C)N[C@@H](C)C5)nn4)c(O)c3)cn2n1 [Cpd 106, 2-{3-[(3R,5S)-3,5-dimethylpiperazin-1-yl]-1,2,4-triazin-6-yl}-5-(2-methyl[1,2,4]triazolo[1,5-a]pyrazin-6-yl)phenol] | 16.5 nM | –
COc1cc(-c2ccc(-c3cnc(N4C[C@@H](C5CC5)N[C@@H](C)C4)nn3)c(O)c2)ncn1 [Cpd 226, 2-{3-[(3R,5S)-3-cyclopropyl-5-methylpiperazin-1-yl]-1,2,4-triazin-6-yl}-5-(6-methoxypyrimidin-4-yl)phenol] | 130 nM | –
Cc1nc2cc(-c3ccc(-c4cnc(N5CCN[C@@H](C(C)C)C5)nn4)c(O)c3)ccn2n1 [Cpd 147, 5-(2-methyl[1,2,4]triazolo[1,5-a]pyridin-7-yl)-2-{3-[(3S)-3-(propan-2-yl)piperazin-1-yl]-1,2,4-triazin-6-yl}phenol] | 38.8 nM | –
CC1([C@@H]2CN(c3ncc(-c4ccc(-c5cnn6c5CCC6)cc4O)nn3)CCN2)CC1 [Cpd 281, 5-(5,6-dihydro-4H-pyrrolo[1,2-b]pyrazol-3-yl)-2-{3-[(3R)-3-(1-methylcyclopropyl)piperazin-1-yl]-1,2,4-triazin-6-yl}phenol] | 198 nM | –

SMILES | IC50 [1] | IC50 (Table 3, selected compounds from WO/2019/191229 A1, same MSD assay)
CC(C)CC1CN(c2ncc(-c3ccc(-c4cn[nH]c4)cc3O)nn2)CCN1 (centres unmarked) [Cpd 46, 2-{3-[3-(2-methylpropyl)piperazin-1-yl]-1,2,4-triazin-6-yl}-5-(1H-pyrazol-4-yl)phenol] | 150 nM | –
[2H]C([2H])([2H])n1cc(-c2ccc(-c3cnc(N4C[C@@H](C)N[C@@H](C)C4)nn3)c(O)c2)cn1 [Cpd 49, 2-{3-[(3R,5S)-3,5-dimethylpiperazin-1-yl]-1,2,4-triazin-6-yl}-5-[1-(^2H3)methyl-1H-pyrazol-4-yl]phenol] | 256 nM | –
CC(C)[C@H]1CN(c2ncc(-c3ccc(-c4nnc(C(F)F)s4)cc3O)nn2)CCN1 [Cpd 205, 5-[5-(difluoromethyl)-1,3,4-thiadiazol-2-yl]-2-{3-[(3S)-3-(propan-2-yl)piperazin-1-yl]-1,2,4-triazin-6-yl}phenol] | 904 nM | –
CC(C)[C@H]1CN(c2ncc(-c3ccc(-c4ccc5nccn5n4)cc3O)nn2)CCN1 [Cpd 102, 5-(imidazo[1,2-b]pyridazin-6-yl)-2-{3-[(3S)-3-(propan-2-yl)piperazin-1-yl]-1,2,4-triazin-6-yl}phenol] | 13.4 nM | –
CC(C)[C@H]1CN(c2ncc(-c3ccc(-c4cnc5nn(C)nc5c4)cc3O)nn2)CCN1 [Cpd 212, 5-(2-methyl-2H-[1,2,3]triazolo[4,5-b]pyridin-6-yl)-2-{3-[(3S)-3-(propan-2-yl)piperazin-1-yl]-1,2,4-triazin-6-yl}phenol] | 3.3 nM | –
CC(C)(C)[C@H]1CN(c2ncc(-c3cc(F)c(-c4cn[nH]c4)cc3O)nn2)CCN1 [Cpd 164, 2-{3-[(3S)-3-tert-butylpiperazin-1-yl]-1,2,4-triazin-6-yl}-4-fluoro-5-(1H-pyrazol-4-yl)phenol] | 4 nM | –
Cc1cn2cc(-c3ccc(-c4cnc(N5C[C@@H](C)N[C@@H](C)C5)nn4)c(O)c3)cc(C#N)c2n1 [Cpd 87, 6-(4-{3-[(3R,5S)-3,5-dimethylpiperazin-1-yl]-1,2,4-triazin-6-yl}-3-hydroxyphenyl)-2-methylimidazo[1,2-a]pyridine-8-carbonitrile] | 6.4 nM | –
CC(C)[C@H]1CN(c2ncc(-c3c(O)cc(-c4cn[nH]c4F)cc3F)nn2)CCN1 [Cpd 283, 3-fluoro-5-(5-fluoro-1H-pyrazol-4-yl)-2-{3-[(3S)-3-(propan-2-yl)piperazin-1-yl]-1,2,4-triazin-6-yl}phenol] | 7.3 nM | –
CCN1CCN(c2ncc(-c3ccc(-c4cc(F)c5nc(C)cn5c4)cc3O)nn2)CC1 [Cpd 77, 2-[3-(4-ethylpiperazin-1-yl)-1,2,4-triazin-6-yl]-5-(8-fluoro-2-methylimidazo[1,2-a]pyridin-6-yl)phenol] | 4.9 nM | –
Oc1cc(-c2cn[nH]c2)ccc1-c1cnc(N2CCN3CCC[C@H]3C2)nn1 [WO/2019/191229 A1 Cpd 116, reference compound] | – | 91.4 nM
CC1(C2CN(c3ncc(-c4ccc(-c5cn[nH]c5)cc4O)nn3)CCN2)CC1 (centres unmarked) [Cpd 134, 2-{3-[3-(1-methylcyclopropyl)piperazin-1-yl]-1,2,4-triazin-6-yl}-5-(1H-pyrazol-4-yl)phenol] | 14.9 nM | –
CC(C)[C@H]1CN(c2ncc(-c3ccc(-c4ccncc4)cc3O)nn2)CCN1 [Cpd 161, 2-{3-[(3S)-3-(propan-2-yl)piperazin-1-yl]-1,2,4-triazin-6-yl}-5-(pyridin-4-yl)phenol] | 60.5 nM | –
[2H]C([2H])([2H])Oc1cc(-c2ccc(-c3cnc(N4CCN[C@@H](C5CC5)C4)nn3)c(O)c2)ncn1 [Cpd 2, 2-{3-[(3S)-3-cyclopropylpiperazin-1-yl]-1,2,4-triazin-6-yl}-5-{6-[(^2H3)methyloxy]pyrimidin-4-yl}phenol] | 3.9 nM | –
CC[C@H]1CN(c2ncc(-c3ccc(-c4c[nH]nc4F)cc3O)nn2)CCN1 [Cpd 123, 2-{3-[(3S)-3-ethylpiperazin-1-yl]-1,2,4-triazin-6-yl}-5-(3-fluoro-1H-pyrazol-4-yl)phenol] | 11.2 nM | –
C[C@H]1CN(c2ncc(-c3ccc(-c4cn[nH]c4)cc3O)nn2)CCN1 [Cpd 165, 2-{3-[(3S)-3-methylpiperazin-1-yl]-1,2,4-triazin-6-yl}-5-(1H-pyrazol-4-yl)phenol] | 124 nM | –
[2H]C([2H])([2H])n1cc(-c2cc(O)c(-c3cnc(N4CCN[C@@H](C(C)(C)C)C4)nn3)cc2F)cn1 [Cpd 156, 2-{3-[(3S)-3-tert-butylpiperazin-1-yl]-1,2,4-triazin-6-yl}-4-fluoro-5-[1-(^2H3)methyl-1H-pyrazol-4-yl]phenol] | 12.5 nM | –
